Test results from US20050227977A1, “Substituted 1,2,5,10-tetrahydropyridazino [4,5-b]quinoline-1,10-dione compounds and methods for the treatment of pain” (AstraZeneca AB, priority 1999, published 2005).

Each molecule was assayed against T1, NMDA receptor glycine site (Rattus norvegicus, UniProt P35439) (assay: Test A: Inhibition of binding of [3H]-MDL105,519). Conditions: inhibition of 1.2 nM [3H]MDL105,519 binding to brain membranes; table does not say rat or human membranes.
T1 construct: tissue Analytical Biological Services Inc; host or cells: rat brain membranes (cerebral cortex and hippocampus, male Sprague Dawley rats)
From the text: Test A: Inhibition of Binding of [^3H]-MDL105,519:
Binding of compounds to the NMDA receptor glycine site may be assessed by measuring the ability of test compounds to inhibit the binding of tritiated MDL105,519 to brain membranes bearing the receptor.
Briefly, fresh brain tissue including cerebral cortex and hippocampus from male Sprague Dawley rats was homogenized in 0.32 M sucrose and centrifuged at low speed to separate cellular membranes from other cellular components. The membranes were then washed 3 times using deionized water, followed by treatment with 0.04% Triton X-100. Finally, membranes were washed six times in 50 mM Tris citrate buffer, pH 7.4, and frozen at −80° C. until use.
[^3H]MDL105,519 (72 Ci/mmol) was purchased from Amersham. Cold MDL105,519 was purchased from Sigma/RBI. […] On the day of the experiment, brain membranes were thawed at room temperature and suspended in 50 mM tris acetate buffer, pH 7.4 (“TAB”). Seventy-five micro grams per milliliter protein (by using the BioRad dye) were used for competition binding. The experiments were carried out using 96-well plates. […] Non specific binding was determined by using 100 μM of unlabeled MDL105,519. […] After incubation, unbound [^3H]MDL105,519 was removed by filtration onto GF/B Unifilter plates using a Packard harvester. Filters were washed four times with ice cold TAB (total of 1.2 mL buffer). The plates were dried overnight at room temperature and bound radioactivity was measured on a Packard TopCount after the addition of 45 μL per well of the MICROSCINT O.
Human Brain Membranes: Human brain membranes were obtained from Analytical Biological Services Inc., and assays were performed as described for rat membranes.
Data analysis: Data was analyzed using a Microsoft Excel spreadsheet and GraphPad Prizm software and potency of compounds is expressed as the Ki (nM).

Structure (SMILES)	Ki
COc1ccc(Cn2nc(O)c3[nH]c4cc(Cl)ccc4c(=O)c3c2=O)cc1OC(=O)N(C)C [Ex. 14, Dimethyl-carbamic acid 5-(7-chloro-4-hydroxy-1,10-dioxo-5,10-dihydro-1H-pyridazino[4,5-b]quinolin-2-ylmethyl)-2-methoxy-phenyl ester]	165 nM
Cc1cc(Cn2nc(O)c3[nH]c4cc(Cl)ccc4c(=O)c3c2=O)ccc1OC(=O)N(C)c1ccccc1 [Ex. 13, Methyl-phenyl-carbamic acid 4-(7-chloro-4-hydroxy-1,10-dioxo-5,10-dihydro-1H-pyridazino[4,5-b]quinolin-2-ylmethyl)-2-methyl-phenyl ester]	59 nM
COc1ccc(Cn2nc(O)c3[nH]c4cc(Cl)ccc4c(=O)c3c2=O)cc1OC(=O)N1CCOCC1 [Ex. 16, Morpholine-4-carboxylic acid 5-(7-chloro-4-hydroxy-1,10-dioxo-5,10-dihydro-1H-pyridazino[4,5-b]quinolin-2-ylmethyl)-2-methoxy-phenyl ester]	86.6 nM
Cc1cc(Cn2nc(O)c3[nH]c4cc(Cl)ccc4c(=O)c3c2=O)ccc1OC(=O)N1CCOCC1 [Ex. 12, Morpholine-4-carboxylic acid 4-(7-chloro-4-hydroxy-1,10-dioxo-5,10-dihydro-1H-pyridazino[4,5-b]quinolin-2-ylmethyl)-2-methyl-phenyl ester]	267 nM
